Source: ChEMBL document CHEMBL3045073, “Synthesis of -amino carbonyl derivatives of coumarin and benzofuran and evaluation of their biological activity” (Med Chem Res, 2013)
Values after ≈ are worked out from the molar mass of the structure shown. Active and inactive are the calls of the source. The rule behind the calls is not given here.

Key:
Staphylococcus aureus [1] = test: Antibacterial activity against Staphylococcus aureus ATCC 25923 assessed as growth inhibition at 50 mg/mL after 24 hr by agar well diffusion method; settings: for zone of inhibition at 50000 µg/mL: ATCC 25923, 24 h, read-out: IZ
Candida albicans [2] = test: Antifungal activity against Candida albicans MTCC227 assessed as growth inhibition at 50 mg/mL after 72 hr by agar well diffusion method; settings: for zone of inhibition at 50000 µg/mL: MTCC227, 72 h, read-out: IZ
Aspergillus flavus [3] = test: Antifungal activity against Aspergillus flavus assessed as growth inhibition after 72 hr by serial broth dilution method; type: functional
Pseudomonas aeruginosa [4] = test: Antibacterial activity against Pseudomonas aeruginosa ATCC 27853 assessed as growth inhibition after 24 hr by serial broth dilution method; type: functional
Pseudomonas aeruginosa [5] = test: Antibacterial activity against Pseudomonas aeruginosa ATCC 27853 assessed as growth inhibition at 50 mg/mL after 24 hr by agar well diffusion method; type: functional; settings: for zone of inhibition at 50000 µg/mL: ATCC 27853, 24 h, read-out: IZ
[6] = system: Chrysosporium keratinophilum; test: Antifungal activity against Chrysosporium keratinophilum assessed as growth inhibition at 50 mg/mL after 72 hr by agar well diffusion method; type: functional; settings: for zone of inhibition at 50000 µg/mL: read-out: IZ
[7] = system: Chrysosporium keratinophilum; test: Antifungal activity against Chrysosporium keratinophilum assessed as growth inhibition after 72 hr by serial broth dilution method; type: functional
Aspergillus flavus [8] = test: Antifungal activity against Aspergillus flavus assessed as growth inhibition at 50 mg/mL after 72 hr by agar well diffusion method; type: functional; settings: for zone of inhibition at 50000 µg/mL: read-out: IZ
[9] = system: Radical scavenging activity; test: Antioxidant activity assessed as DPPH free radical scavenging activity at 100 ug/mL after 10 min UV-Vis spectrophotometric analysis relative to control; type: functional
Staphylococcus aureus [10] = test: Antibacterial activity against Staphylococcus aureus ATCC 25923 assessed as growth inhibition after 24 hr by serial broth dilution method
Candida albicans [11] = test: Antifungal activity against Candida albicans MTCC227 assessed as growth inhibition after 72 hr by serial broth dilution method
Escherichia coli [12] = test: Antibacterial activity against Escherichia coli ATCC 25922 assessed as growth inhibition at 50 mg/mL after 24 hr by agar well diffusion method; settings: for zone of inhibition at 50000 µg/mL: ATCC 25922, 24 h, read-out: IZ
Escherichia coli [13] = test: Antibacterial activity against Escherichia coli ATCC 25922 assessed as growth inhibition after 24 hr by serial broth dilution method
[14] = Metal chelating activity of the compound assessed as ferrous ion complex formation at 0.5 to 2 mg/mL after 10 min by spectrophotometric analysis relative to EDTA

| Compound | MIC (Aspergillus flavus [3]) | growth inhibition (GI) [6] | MIC [7] | Activity [9] [%] | zone of inhibition at 50000 µg/mL (Staphylococcus aureus [1]) [mm] | zone of inhibition at 50000 µg/mL (Candida albicans [2]) [mm] | MIC (Pseudomonas aeruginosa [4]; ATCC 27853, 24 h) [µg/mL] | zone of inhibition at 50000 µg/mL (Pseudomonas aeruginosa [5]) [mm] | zone of inhibition at 50000 µg/mL [6] [mm] | zone of inhibition at 50000 µg/mL (Aspergillus flavus [8]) [mm] | MIC (Staphylococcus aureus [10]; ATCC 25923, 24 h) [µg/mL] | MIC (Candida albicans [11]; MTCC227, 72 h) [µg/mL] | zone of inhibition at 50000 µg/mL (Escherichia coli [12]) [mm] | MIC (Escherichia coli [13]; ATCC 25922, 24 h) [µg/mL] | also measured |
| --- | --- | --- | --- | --- | --- | --- | --- | --- | --- | --- | --- | --- | --- | --- | --- |
| Cc1ccc(C(CC(=O)c2cc3ccccc3o2)Nc2ccc(C(=O)O)cc2)cc1 (stereo unspecified) | inactive | inactive | inactive | 54.1 | – | – | – | – | – | – | – | – | – | – | growth inhibition (GI) (Staphylococcus aureus [1]): inactive; growth inhibition (GI) (Candida albicans [2]): inactive; MIC (Pseudomonas aeruginosa [4]): inactive; growth inhibition (GI) (Pseudomonas aeruginosa [5]): inactive; growth inhibition (GI) (Aspergillus flavus [8]): inactive; MIC (Staphylococcus aureus [10]): inactive; MIC (Candida albicans [11]): inactive; growth inhibition (GI) (Escherichia coli [12]): inactive; MIC (Escherichia coli [13]): inactive |
| Cc1cc(C(C)(C)C)c(O)c(C(C)(C)C)c1 | – | – | – | 90 | – | – | – | – | – | – | – | – | – | – | – |
| O=C(O)c1ccc(NC(CC(=O)c2cc3ccccc3o2)c2ccc([N+](=O)[O-])cc2)cc1 (stereo unspecified) | 550 µg/mL (≈ 1280 µM) | – | 500 µg/mL (≈ 1160 µM) | 29.1 | 3 | 2 | 500 (≈ 1160 µM) | 3 | 2 | 3 | 400 (≈ 929 µM) | 450 (≈ 1050 µM) | 3 | 500 (≈ 1160 µM) | – |
| O=C(O)c1ccc(NC(CC(=O)c2cc3ccccc3oc2=O)c2ccc([N+](=O)[O-])cc2)cc1 (stereo unspecified) | 250 µg/mL (≈ 545 µM) | – | 350 µg/mL (≈ 763 µM) | 15.3 | 3 | 4 | 430 (≈ 938 µM) | 6 | 6 | 5 | 500 (≈ 1090 µM) | 500 (≈ 1090 µM) | 3 | 500 (≈ 1090 µM) | – |
| O=C(O)c1ccc(NC(CC(=O)c2cc3ccccc3oc2=O)c2ccc(F)cc2)cc1 (stereo unspecified) | 230 µg/mL (≈ 533 µM) | – | 200 µg/mL (≈ 464 µM) | 35.2 | 10 | 18 | 100 (≈ 232 µM) | 12 | 12 | 10 | 120 (≈ 278 µM) | 100 (≈ 232 µM) | 12 | 100 (≈ 232 µM) | – |
| COc1ccc(C(CC(=O)c2cc3ccccc3oc2=O)Nc2ccc(C(=O)O)cc2)cc1 (stereo unspecified) | inactive | inactive | inactive | 18.1 | – | – | – | – | – | – | – | – | – | – | growth inhibition (GI) (Staphylococcus aureus [1]): inactive; growth inhibition (GI) (Candida albicans [2]): inactive; MIC (Pseudomonas aeruginosa [4]): inactive; growth inhibition (GI) (Pseudomonas aeruginosa [5]): inactive; growth inhibition (GI) (Aspergillus flavus [8]): inactive; MIC (Staphylococcus aureus [10]): inactive; MIC (Candida albicans [11]): inactive; growth inhibition (GI) (Escherichia coli [12]): inactive; MIC (Escherichia coli [13]): inactive |
| COc1ccc(C(CC(=O)c2cc3ccccc3o2)Nc2ccc(C(=O)O)cc2)cc1 (stereo unspecified) | 500 µg/mL (≈ 1200 µM) | – | 500 µg/mL (≈ 1200 µM) | 14.2 | 1 | – | 500 (≈ 1200 µM) | 1 | 2 | 1 | 500 (≈ 1200 µM) | – | 3 | 500 (≈ 1200 µM) | growth inhibition (GI) (Candida albicans [2]): inactive; MIC (Candida albicans [11]): inactive |
| O=C(O)c1ccc(NC(CC(=O)c2cc3ccccc3oc2=O)c2ccc(Cl)cc2)cc1 (stereo unspecified) | 40 µg/mL (≈ 89.3 µM) | – | 40 µg/mL (≈ 89.3 µM) | 34.7 | 11 | 19 | 40 (≈ 89.3 µM) | 13 | 15 | 11 | 50 (≈ 112 µM) | 50 (≈ 112 µM) | 13 | 50 (≈ 112 µM) | – |
| O=C(O)c1ccc(NC(CC(=O)c2cc3ccccc3o2)c2ccc(Cl)cc2)cc1 (stereo unspecified) | 40 µg/mL (≈ 95.3 µM) | – | 40 µg/mL (≈ 95.3 µM) | 31.2 | 8 | 17 | 140 (≈ 333 µM) | 7 | 13 | 7 | 130 (≈ 310 µM) | 50 (≈ 119 µM) | 9 | 120 (≈ 286 µM) | – |
| O=C(CC(Nc1ccccc1)c1ccccc1)c1cc2ccccc2o1 (stereo unspecified) | 500 µg/mL (≈ 1460 µM) | – | 500 µg/mL (≈ 1460 µM) | 28.7 | 1 | 2 | 500 (≈ 1460 µM) | 1 | 1 | 2 | 500 (≈ 1460 µM) | 500 (≈ 1460 µM) | 1 | 500 (≈ 1460 µM) | – |
| Cc1ccc(C(CC(=O)c2cc3ccccc3oc2=O)Nc2ccc(C(=O)O)cc2)cc1 (stereo unspecified) | 450 µg/mL (≈ 1050 µM) | inactive | inactive | 52.5 | 3 | 1 | 500 (≈ 1170 µM) | 3 | – | 1 | 500 (≈ 1170 µM) | 500 (≈ 1170 µM) | 1 | 500 (≈ 1170 µM) | Activity [14]: Active |
| COc1ccc(C(CC(=O)c2cc3ccccc3o2)Nc2ccccc2)cc1 (stereo unspecified) | inactive | inactive | inactive | 27.3 | – | – | – | – | – | – | – | – | – | – | growth inhibition (GI) (Staphylococcus aureus [1]): inactive; growth inhibition (GI) (Candida albicans [2]): inactive; MIC (Pseudomonas aeruginosa [4]): inactive; growth inhibition (GI) (Pseudomonas aeruginosa [5]): inactive; growth inhibition (GI) (Aspergillus flavus [8]): inactive; MIC (Staphylococcus aureus [10]): inactive; MIC (Candida albicans [11]): inactive; growth inhibition (GI) (Escherichia coli [12]): inactive; MIC (Escherichia coli [13]): inactive |
| O=C(CC(Nc1ccccc1)c1ccccc1)c1cc2ccccc2oc1=O (stereo unspecified) | 450 µg/mL (≈ 1220 µM) | – | 550 µg/mL (≈ 1490 µM) | 25.3 | 5 | 7 | 350 (≈ 947 µM) | 1 | 3 | 4 | 500 (≈ 1350 µM) | 300 (≈ 812 µM) | 4 | 500 (≈ 1350 µM) | – |
| CN(C)c1ccc(C(CC(=O)c2cc3ccccc3oc2=O)Nc2ccc(C(=O)O)cc2)cc1 (stereo unspecified) | 450 µg/mL (≈ 986 µM) | inactive | inactive | 12.3 | 2 | 1 | 400 (≈ 876 µM) | 3 | – | 1 | 550 (≈ 1200 µM) | 500 (≈ 1100 µM) | 3 | 500 (≈ 1100 µM) | – |
